We go through 15 compounds from patent US12370263B2, “Cyclic dinucleotide derivative based antibody-drug conjugates” (DAIICHI SANKYO COMPANY, LIMITED, priority 2018, dated 2025).

Broadly, the EC50 is the concentration needed to bring the measured effect to its halfway point. Read a low EC50 as higher potency in that assay.

This experiment deals with Human STING (Homo sapiens, UniProt Q86WV6, G230A/H232R/R293Q/R71H). Nature of the experiment: Reporter gene assay, human STING agonist activity, THP1-Dual cells (HAQ-mutated), IRF pathway. The note with it: THP1-Dual cells IRF EC50, THP1-Dual cells (HAQ-mutated), 24 hours; 100% = maximum count with ML-RR-CDA·2Na+.
Chain of Human STING (Q86WV6 whole entry R71H/G230A/H232R/R293Q): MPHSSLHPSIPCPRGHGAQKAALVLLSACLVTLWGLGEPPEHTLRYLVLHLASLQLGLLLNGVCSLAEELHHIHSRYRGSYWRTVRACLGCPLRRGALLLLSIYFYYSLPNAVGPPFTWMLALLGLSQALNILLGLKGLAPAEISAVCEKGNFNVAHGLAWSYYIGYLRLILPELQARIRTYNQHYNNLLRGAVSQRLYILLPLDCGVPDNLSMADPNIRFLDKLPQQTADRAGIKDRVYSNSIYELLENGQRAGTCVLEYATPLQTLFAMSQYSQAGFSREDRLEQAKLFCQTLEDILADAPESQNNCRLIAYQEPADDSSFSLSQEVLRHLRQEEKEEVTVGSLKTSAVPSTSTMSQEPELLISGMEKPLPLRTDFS

On to `Nc1ncnc2c1ncn2[C@@H]1O[C@@H]2COP(=O)(S)O[C@H]3[C@@H](O)[C@H](n4cc5c6c(ncnc64)NCCC5)O[C@@H]3COP(=O)(S)O[C@@H]1[C@@H]2O` (single isomer, unassigned) [1b], for which the EC50 is 0.3 µM.

For `Nc1ncnc2c1ncn2[C@@H]1O[C@@H]2COP(=O)(S)O[C@H]3[C@@H](O)[C@H](n4cc5c6c(ncnc64)NCCC5)O[C@@H]3COP(=O)(S)O[C@@H]1[C@@H]2O` (single isomer, unassigned) [2a], the EC50 came out at 4.7 µM.

`NCCn1cnc2c(ncn2[C@@H]2O[C@@H]3COP(=O)(S)O[C@H]4[C@@H](O)[C@H](n5cc6c7c(ncnc75)NCCC6)O[C@@H]4COP(=O)(S)O[C@@H]2[C@@H]3O)c1=O` (single isomer, unassigned) [5a] came in with a concentration for a half-maximal effect (EC50) of 2.4 µM.

`O=c1c2ncn([C@@H]3O[C@@H]4COP(=O)(S)O[C@H]5[C@@H](O)[C@H](n6cc7c8c(ncnc86)NCCC7)O[C@@H]5COP(=O)(S)O[C@@H]3[C@@H]4O)c2ncn1CCO` (single isomer, unassigned) [6b] gave an EC50 of 2.1 µM.

Compound `Nc1nc(NCCO)nc2c1ncn2[C@@H]1O[C@@H]2COP(=O)(S)O[C@H]3[C@@H](O)[C@H](n4cc5c6c(ncnc64)NCCC5)O[C@@H]3COP(=O)(S)O[C@@H]1[C@@H]2O` (single isomer, unassigned) [9a] returned an EC50 of 5.7 µM.

Compound `CC(C)(N)CNc1nc(N)c2ncn([C@@H]3O[C@@H]4COP(=O)(S)O[C@H]5[C@@H](O)[C@H](n6cc7c8c(ncnc86)NCCC7)O[C@@H]5COP(=O)(S)O[C@@H]3[C@@H]4O)c2n1` (single isomer, unassigned) [10a] yielded an EC50 of 6.3 µM.

In turn, `NCc1nc(N)c2ncn([C@@H]3O[C@@H]4COP(=O)(S)O[C@H]5[C@@H](O)[C@H](n6cc7c8c(ncnc86)NCCC7)O[C@@H]5COP(=O)(S)O[C@@H]3[C@@H]4O)c2n1` (single isomer, unassigned) [11a] returned an EC50 of 4 µM.

`Nc1nc(CO)nc2c1ncn2[C@@H]1O[C@@H]2COP(=O)(S)O[C@H]3[C@@H](O)[C@H](n4cc5c6c(ncnc64)NCCC5)O[C@@H]3COP(=O)(S)O[C@@H]1[C@@H]2O` (single isomer, unassigned) [12b] registered an EC50 of 1.8 µM.

The compound `Nc1ncnc2c1ncn2[C@@H]1O[C@@H]2COP(=O)(S)O[C@H]3[C@@H](O)[C@H](n4cc5c6c(ncnc64)OCCC5)O[C@@H]3COP(=O)(S)O[C@@H]1[C@@H]2O` (single isomer, unassigned) [20b] displayed an EC50 of 0.4 µM.

Turning to `Nc1ncnc2c1ncn2[C@@H]1O[C@@H]2COP(=O)(S)O[C@H]3[C@@H](O)[C@H](n4cc5c6c(ncnc64)OCCC5)O[C@@H]3COP(=O)(S)O[C@@H]1[C@@H]2O` (single isomer, unassigned) [21b], it took 0.7 µM to reach a half-maximal effect (EC50).

`C[C@H]1CCc2cn([C@@H]3O[C@@H]4COP(=O)(S)O[C@@H]5[C@H](O)[C@@H](COP(=O)(S)O[C@H]4[C@H]3O)O[C@H]5n3cnc4c(N)ncnc43)c3ncnc(c23)O1` (single isomer, unassigned) [22b] showed an EC50 of 4.3 µM.

In the case of `Nc1ncnc2c1ncn2[C@@H]1O[C@@H]2COP(=O)(S)O[C@H]3[C@@H](O)[C@H](n4cc5c6c(ncnc64)SCCC5)O[C@@H]3COP(=O)(S)O[C@@H]1[C@@H]2O` (single isomer, unassigned) [23b], the EC50 is 0.055 µM.

Consider `O=c1c2ncn([C@@H]3O[C@@H]4COP(=O)(S)O[C@H]5[C@@H](O)[C@H](n6cc7c8c(ncnc86)NCCC7)O[C@@H]5COP(=O)(S)O[C@@H]3[C@@H]4O)c2ncn1CCCO` (single isomer, unassigned) [26a], for which the EC50 worked out at 1.4 µM.

Turning to `O=c1c2ncn([C@@H]3O[C@@H]4COP(=O)(S)O[C@H]5C[C@H](n6cc7c8c(ncnc86)NCCC7)O[C@@H]5COP(=O)(S)O[C@@H]3[C@@H]4O)c2ncn1CCO` (single isomer, unassigned) [32a], it took 1.2 µM to reach a half-maximal effect (EC50).

The compound `O=c1c2ncn([C@@H]3O[C@@H]4COP(=O)(S)O[C@H]5C[C@H](n6cc7c8c(ncnc86)NCCC7)O[C@@H]5COP(=O)(S)O[C@@H]3[C@@H]4O)c2ncn1CCO` (single isomer, unassigned) [32b] had an EC50 of 6.4 µM.
